Experimental findings from patent US8466089B2, “Pyrazole compounds, process for their production and herbicides containing them” (Ishihara Sangyo Kaisha, Ltd., priority 2008, dated 2013) are described below.

Type in all cases: in vivo
Assay [1] has as its system Japanese ribbon waparo (Sagittaria pygmaea). The assay is described as follows: Test Example 3, paddy field pot, application to irrigated water. The settings on record: applied at primary leaf stage, 13th to 17th day after application, read-out: Growth inhibition rate (%) Japanese ribbon waparo. An excerpt:
(§1) Paddy field soil was put into a 1/1,000,000 hectare pot, and seeds of barnyardgrass (Echinochloa oryzicola vasing.) and Japanese bulrush (Scirpus juncoides) were sown and lightly covered with soil. Then, pot was left to stand in a greenhouse in a state irrigated to a water depth of from 0.5 to 1 cm, and next day or two days later, tubers of Japanese ribbon waparo (Sagittaria pygmaea) were planted. Then, the irrigated water depth was maintained to be from 3 to 4 cm, and when barnyardgrass and Japanese bulrush reached 0.5 leaf stage, and Japanese ribbon waparo reached primary leaf stage, a water diluted solution of a wettable powder or an emulsifiable concentrate of the compound of the present invention prepared in accordance with a conventional preparation method, was uniformly dropwise applied by a pipette so that the amount of active ingredients would be a prescribed amount. Further, paddy field soil was put into a 1/1,000,000 pot, followed by soil puddling to an irrigated water depth of from 3 to 4 cm. Next day, rice (Oryza sativa L.) (var.: Nihonbare) of two leaf stage was transplanted in a transplantation depth of 3 cm. On the 4th day after transplantation, the compound of the present invention was applied in the same manner as described above.
(§2) On the 13th to 17th day after application, the state of growth of barnyardgrass, Japanese bulrush and Japanese ribbon waparo was visually observed, and on the 20th to 23rd day after application, the state of growth of rice was visually observed, and the herbicidal effect was evaluated by a growth inhibition rate (%) of 0 (equivalent to the non-treated area) to 100% (complete kill).

Assay [2] has as its system Japanese bulrush (Scirpus juncoides). The description is as above. The settings on record: Schoenoplectiella juncoides, applied at 0.5 leaf stage, 13th to 17th day after application, read-out: Growth inhibition rate (%) Japanese bulrush.
Description: as §1, §2

The test system of assay [3] is barnyardgrass (Echinochloa oryzicola vasing.). The description is as above. The following applies: applied at 0.5 leaf stage, 13th to 17th day after application, read-out: Growth inhibition rate (%) barnyard grass.
Description: as §1, §2

In assay [4] the test system is rice (Oryza sativa L.) (var.: Nihonbare). In words: Test Example 3, paddy field pot, transplanted rice. The following applies: applied 4th day after transplantation, 20th to 23rd day after application, read-out: Growth inhibition rate (%) Rice.
Description: as §1, §2

In assay [5] the test system is prickly sida (Sida spinosa L.). In words: Test Example 1, foliar treatment in upland pots. The following applies: 20th to 22nd day after application, visual, read-out: Growth inhibition rate (%) Prickly sida. From the text:
(§3) Upland field soil was put into a 1/170,000 hectare pot, and seeds of various plants were sown. When the respective plants reached predetermined leaf stage ((1) barnyardgrass (Echinochloa crus-galli L.): 1.2 to 3.0 leaf stage, (2) crabgrass (Digitaria sanguinalis L.): 1.0 to 3.0 leaf stage, (3) green foxtail (Setaria viridis L.): 1.5 to 3.0 leaf stage, (4) redroot pigweed (Amaranthus retroflexus L.): cotyledon stage to 1.5 leaf stage, (5) prickly sida (Sida spinosa L.): cotyledon stage to 2.0 leaf stage, (6) velvetleaf (Abutilon theophrasti MEDIC.): cotyledon stage to 1.3 leaf stage, (7) rice (Oryza sativa L.): 1.2 to 2.5 leaf stage, (8) corn (Zea mays L.): 2.0 to 3.3 leaf stage, (9) soybean (Glycine max Merr.): primary leaf stage to 0.3 leaf stage) and wheat (Triticum spp.): 2.0 to 3.0 leaf stage, wettable powders or emulsifiable concentrates of the compounds of the present invention prepared in accordance with a conventional preparation method, were weighed so that the active ingredients became the prescribed amounts, and diluted with water in an amount corresponding to 500 liter per 1 hectare (containing 0.1 vol % of an agricultural spreader (“KUSARINOH”, manufactured by NIHON NOHYAKU CO., LTD.)). The spray solutions thus prepared were applied for foliar treatment by a small sprayer.
(§4) On the 20th to 22nd day after application, the state of growth of the respective plants was visually observed, and the herbicidal effect was evaluated by a growth inhibition rate (%) of 0 (equivalent to the non-treated area) to 100% (complete kill).

A further assay relates to rice (Oryza sativa L.). The assay is described as follows: Test Example 1, foliar treatment in upland pots. The following applies: 20th to 22nd day after application, visual, read-out: Growth inhibition rate (%) Rice.
Description: as §3, §4

In assay [6] the test system is crabgrass (Digitaria sanguinalis L.). In words: Test Example 1, foliar treatment in upland pots. The settings on record: 20th to 22nd day after application, visual, read-out: Growth inhibition rate (%) Crabgrass.
Description: as §3, §4

Assay [7] has as its system green foxtail (Setaria viridis L.). The assay is described as follows: Test Example 1, foliar treatment in upland pots. The following applies: 20th to 22nd day after application, visual, read-out: Growth inhibition rate (%) Green foxtail.
Description: as §3, §4

For assay [8], the system named is redroot pigweed (Amaranthus retroflexus L.). The assay is described as follows: Test Example 1, foliar treatment in upland pots. The settings on record: 20th to 22nd day after application, visual, read-out: Growth inhibition rate (%) Redroot pigweed.
Description: as §3, §4

The subject of another assay is wheat (Triticum spp.). The assay is described as follows: Test Example 1, foliar treatment in upland pots. The settings on record: 20th to 22nd day after application, visual, read-out: Growth inhibition rate (%) Wheat.
Description: as §3, §4

Another assay has as its system corn (Zea mays L.). The assay is described as follows: Test Example 1, foliar treatment in upland pots. The settings on record: 20th to 22nd day after application, visual, read-out: Growth inhibition rate (%) Corn.
Description: as §3, §4

The subject of assay [9] is velvetleaf (Abutilon theophrasti MEDIC.). The assay is described as follows: Test Example 1, foliar treatment in upland pots. The settings on record: 20th to 22nd day after application, visual, read-out: Growth inhibition rate (%) Velvetleaf.
Description: as §3, §4

In assay [10] the test system is barnyardgrass (Echinochloa crus-galli L.). The assay is described as follows: Test Example 1, foliar treatment in upland pots. The following applies: 20th to 22nd day after application, visual, read-out: Growth inhibition rate (%) Barnyardgrass.
Description: as §3, §4

For `CCn1ncc(C(=O)c2ccc(S(C)(=O)=O)c(C(=O)OC)c2C)c1OC(C)OC(=O)OC` (stereo not shown) [Compound No. 2-2, Methyl 3-(5-(1-(methoxycarbonyloxy)ethoxy)-1-ethyl-1H-pyrazole-4-carbonyl)-2-methyl-6-(methylsulfonyl)benzoate], the inhibition at 63 g/ha in assay [1] was determined as 90%; in [2], 80%; in [3], 100%; in assay [4], 80%. Further, the inhibition at 7 g/ha in [5] was found to be 70%; with rice (Oryza sativa L.), 50%; in [6] it was 80%; in assay [7], 80%; in [8], 98%; with wheat (Triticum spp.), 0%. In addition, the inhibition at 7 g/ha worked out at 0% in the assay with corn (Zea mays L.), 95% in assay [9] and 98% in [10].

The term inhibition denotes the change of the read-out against control, counted positive when it falls.
